Reference: patent US12503453B2, “USP7 inhibition” (Dana-Farber Cancer Institute, Inc., priority 2018, dated 2025)

Experiments:
USP7 = USP7 (Homo sapiens (Human), UniProt Q93009); assay: Live cell treatment and competitive ABPP with HA-Ub-VS; format: cell-based; conditions: live cell treatment, 6 hr; read-out: IC50 of USP7 inhibition in cyto
Method: HA-Ub-VS experiments were performed as previously described in Lamberto, I. et al. Structure-Guided Development of a Potent and […] Selective Non-covalent Active-Site Inhibitor of USP7. Cell Chem. Biol. 24, 1490-1500 (2017). Briefly, target engagement lysis buffer (50 mM Tris pH 8.0, 150 mM NaCl, 5 mM MgCl2, 0.5 mM EDTA, 0.5% NP-40, 10% glycerol, 1 mM TCEP, protease and phosphatase inhibitors) was added to cell pellets on ice. Lysate was cleared by centrifugation and diluted to 1.67 mg/mL. Where indicated, 30 μL lysate was then incubated with inhibitors or DMSO for the indicated timepoints. 1 μM HA-Ub-VS was then added to the lysate and incubated at RT for the indicated time points. Labeling reactions were quenched with 4×LDS sample buffer (Thermo Fisher B0007) supplemented with 10% BME, vortexed vigorously, and heated to 95° C. for 5 minutes. Samples were resolved by SDS-PAGE and analyzed by Western blot with the indicated antibodies.

[1] = test system: MDM2-p53 signaling axis in MCF7 cells; assay: Whole cell lysate Western blots of MCF7 cells (MDM2-p53 signaling axis); format: cell-based; conditions: wild-type TP53
[2] = test system: p53 target genes in MCF7 cells; assay: Quantitative real-time PCR of MCF7 cells; format: cell-based; conditions: 1 μM, 6 or 24 hours
Method: After cell treatment under the indicated conditions, total cellular RNA was purified using a Qiagen RNEasy kit. 1 μg of RNA was then converted to cDNA using SuperScript III First-Strand Synthesis (Invitrogen). cDNA from each sample was then combined with the indicated TaqMan probe and 2× MasterMix in a 96-well Fast RT-PCR plate (Invitrogen). qPCR was performed on an Invitrogen 7500 Fast qPCR instrument and gene expression was calculated using the 2^−ΔΔct method on Graphpad Prism.

DUBs in HEK293AD lysate = DUBs in HEK293AD lysate (Homo sapiens, UniProt Q93009); assay: In situ DUB profiling, competitive ABPP with Bio-Ub-PA/VME and quantitative MS; format: binding; conditions: HEK293 crude cell extract, 5 hours pre-incubation
Method: DUB profiling was performed using conditions similar to those in Lawson, A. P. et al. Identification of deubiquitinase targets of isothiocyanates using SILAC-assisted quantitative mass spectrometry. Oncotarget 5, (2017). HEK 293AD cells were lysed using target engagement lysis buffer (50 mM Tris pH 8.0, 150 mM NaCl, 5 mM MgCl2, 0.5 mM EDTA, 0.5% NP-40, 10% glycerol, 1 mM TCEP, protease and phosphatase inhibitors), and the lysate was cleared by centrifugation. […] Excess inhibitor was removed using a 30K Amicon spin filter, then the resulting lysate was incubated with 1 μM each of Biotin-Ub-PA and Biotin-Ub-VME for 90 minutes at RT. SDS was added to a final concentration of 1.2%, and samples were heated to 80° C. for 5 minutes. After cooling to RT, 1×PBS was added to dilute the final SDS concentration to 0.2%. […]
(§1) Streptavidin beads were resuspended in 95 μL 100 mM Tris pH 8.0. […] Eluted peptides were then analyzed by nanoLC-MS as described (Ficarro, S. B. et al. Improved electrospray ionization efficiency compensates for diminished chromatographic resolution and enables proteomics analysis of tyrosine signaling in embryonic stem cells. Anal. Chem. 81, 3440-3447 (2009)) with a NanoAcquity UPLC system (Waters, Milford, MA) interfaced to a QExactive HF mass spectrometer (Thermofisher Scientific, San Jose, CA). […]

HEK293 proteome (USP7) = HEK293 proteome (USP7) (Homo sapiens (Human), UniProt Q93009); assay: Compound 6-DTB proteome-wide profiling; format: binding; conditions: HEK293 cell lysates, 5 hours, 1 μM or 10 μM
HEK293 proteome (USP7), sequence (Q93009 whole entry): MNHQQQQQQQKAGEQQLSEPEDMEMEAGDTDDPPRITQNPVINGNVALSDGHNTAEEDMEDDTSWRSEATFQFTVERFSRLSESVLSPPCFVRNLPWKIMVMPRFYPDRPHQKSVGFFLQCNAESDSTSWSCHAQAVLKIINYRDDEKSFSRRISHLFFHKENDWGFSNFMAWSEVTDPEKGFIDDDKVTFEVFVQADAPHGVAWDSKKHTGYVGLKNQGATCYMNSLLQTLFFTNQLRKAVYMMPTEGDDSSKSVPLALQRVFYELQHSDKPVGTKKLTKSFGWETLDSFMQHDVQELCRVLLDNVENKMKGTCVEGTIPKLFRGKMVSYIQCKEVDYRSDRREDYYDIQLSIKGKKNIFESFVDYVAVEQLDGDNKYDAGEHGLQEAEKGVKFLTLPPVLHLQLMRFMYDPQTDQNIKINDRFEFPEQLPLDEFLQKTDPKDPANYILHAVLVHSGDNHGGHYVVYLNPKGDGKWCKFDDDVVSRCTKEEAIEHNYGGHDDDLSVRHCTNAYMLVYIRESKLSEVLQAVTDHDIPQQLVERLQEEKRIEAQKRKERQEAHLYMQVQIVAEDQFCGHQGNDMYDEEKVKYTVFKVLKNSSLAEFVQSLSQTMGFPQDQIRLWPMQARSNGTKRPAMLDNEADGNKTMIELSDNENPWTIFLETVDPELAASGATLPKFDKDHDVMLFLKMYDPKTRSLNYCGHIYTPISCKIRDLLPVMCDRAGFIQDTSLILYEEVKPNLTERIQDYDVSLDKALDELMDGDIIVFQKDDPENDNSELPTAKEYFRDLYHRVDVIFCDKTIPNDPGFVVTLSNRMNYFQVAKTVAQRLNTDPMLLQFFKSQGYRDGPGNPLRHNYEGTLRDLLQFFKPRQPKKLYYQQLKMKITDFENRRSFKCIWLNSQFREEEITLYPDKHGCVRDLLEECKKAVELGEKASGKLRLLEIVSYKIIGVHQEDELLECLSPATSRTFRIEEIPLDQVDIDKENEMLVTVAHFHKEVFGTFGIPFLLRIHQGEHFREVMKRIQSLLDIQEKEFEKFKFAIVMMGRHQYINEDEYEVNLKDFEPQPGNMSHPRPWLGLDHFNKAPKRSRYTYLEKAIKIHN
Method: HEK 293AD cells were lysed as described above, and the lysate was cleared by centrifugation. […] SDS was added to a final concentration of 1.2% (27.2 μL of a 10% stock), and denatured by heating to 80° C. for 5 minutes. After cooling to RT, 1125 μL 1×PBS was added to dilute the final SDS concentration to 0.2%. 50 μL streptavidin agarose slurry was added to each sample, followed by incubation at RT for 3 hours. After streptavidin enrichment, samples were washed vigorously (2×0.2% SDS, 3×PBS, 3×ddH2O). After the final wash, all supernatant was removed using a flat-bottom tip, and the resin was flash frozen and stored at −80° C. until workup for TMT labeling.
as §1, with “8.0. Each sample was denatured with 0.1% rapigest, reduced (10 mM dithiothreitol), alkylated (22.5 mM iodoacetamide), and digested with trypsin overnight at 37° C.” for “8.0.”

USP7, sequence (Q93009 whole entry): as above

- IC50 (USP7): 39 nM
- blocking of USP7 labeling by DUB ABPs (DUBs in HEK293AD lysate): significantly blocked USP7 labeling
- inhibition of compound 6-DTB labeling of USP7 (only protein of 566) (HEK293 proteome (USP7)): > 3 fold
Compound: CN1CCN(CCC(=O)Nc2ccc3c(=O)n(CC4(O)CCN(C(=O)[C@@H](CCCNC(=O)c5ccc6c(Cl)c7c(nc6c5)CCCC7)Cc5ccccc5)CC4)cnc3c2)CC1 [compound 6, (S)—N-(4-benzyl-5-(4-hydroxy-4-((7-(3-(4-methylpiperazin-1-yl)propanamido)-4-oxoquinazolin-3(4H)-yl)methyl)piperidin-1-yl)-5-oxopentyl)-9-chloro-5,6,7,8-tetrahydroacridine-3-carboxamide]
- MDM2 protein level [1]: induced rapid degradation of MDM2 within 2 hours
- p53 and p21 protein levels [1]: increases in p53 and downstream p21 protein levels
- transcription of p53 target genes (CDKN1A, GADD45A, BAX, DDB2) [2]: stimulating transcription of p53 target genes
